Reference: patent US5602106A, “16-membered macrolide derivatives” (priority 1993, dated 1997)
Converted amounts (≈) assume the structure as drawn.

How the values were obtained:
Type in all cases: cell-based
[1] = test system: test strains; assay: Antimicrobial activity in vitro, test strains overall; details: for antimicrobial activities compared with compound (1): vs compound (1)
Method: (§1) The effect of the first aspect of the present invention resides in the creation of a novel and useful 16-membered macrolide derivative. Antimicrobial activities of the compounds of the present invention were determined by measuring minimum inhibitory concentration (MIC). Minimum inhibitory concentration was determined by the agar plate dilution method in the following manner.
(§2) Test strains were subjected to seed culture using Sensitivity test broth (STB, Nissui Pharmaceutical) except that the strains belonging to the genus Streptococcus, Branhamella and Haemophilus were cultured on blood agar plate. A 5 μl portion of cell suspension of the test strains having about 10^6 CFU/ml was inoculated into Sensitivity disk agar (SDA, Nissui Pharmaceutical) supplemented with 5% horse blood and incubated at 37° C. for 20 hours. Then, MIC was measured. […] Antimicrobial activities in vitro of the compounds (1) and (2) are shown in Table 1, and those of the compounds (3) and (4) in Table 3.

[2] = test system: clinically important Gram-positive bacteria; assay: Antimicrobial activity / growth inhibition
Method: as §1, §2

[3] = test system: S. aureus 209P JC-1; assay: MIC, agar plate dilution method; details: Staphylococcus aureus, 209P, 20 h, read-out: Antimicrobial activity (MIC), 37° C., 20 hours, SDA with 5% horse blood
Method: as §1, §2

[4] = test system: K. pneumoniae PCI602; assay: MIC, agar plate dilution method; details: Klebsiella pneumoniae, PCI602, 20 h, 37° C., SDA with 5% horse blood, read-out: Antimicrobial activity (MIC)
Method: as §1, §2

[5] = test system: S. aureus MS15026; assay: MIC, agar plate dilution method; details: Staphylococcus aureus, 37° C., 20 hours, SDA with 5% horse blood, read-out: Antimicrobial activity (MIC)
Method: as §1, §2

[6] = test system: E. faecalis W-73; assay: MIC, agar plate dilution method; details: Enterococcus faecalis, W73, 20 h, read-out: Antimicrobial activity (MIC)
Method: as §1, §2

[7] = test system: B. catarrhalis W-0500; assay: MIC, agar plate dilution method; details: Moraxella catarrhalis, W0500; 37° C., 20 hours, SDA with 5% horse blood; read-out: Antimicrobial activity (MIC)
Method: as §1, §2

[8] = test system: S. pyogenes Cook; assay: MIC, agar plate dilution method; details: Streptococcus pyogenes; 37° C., 20 hours, SDA with 5% horse blood; read-out: Antimicrobial activity (MIC)
Method: as §1, §2

[9] = test system: S. aureus MS15027; assay: MIC, agar plate dilution method; details: Staphylococcus aureus, MS15027, 20 h, read-out: Antimicrobial activity (MIC), 37° C., 20 hours, SDA with 5% horse blood
Method: as §1, §2

[10] = test system: S. aureus M133; assay: MIC, agar plate dilution method; details: Staphylococcus aureus, M133, 20 h, 37° C., 20 hours, SDA with 5% horse blood; read-out: Antimicrobial activity (MIC)
Method: as §1, §2

[11] = test system: S. aureus MS15009/pMS99; assay: MIC, agar plate dilution method; details: Staphylococcus aureus, MS15009/PMS99, 20 h, read-out: Antimicrobial activity (MIC)
Method: as §1, §2

[12] = test system: S. pneumoniae IP692; assay: MIC, agar plate dilution method; details: Streptococcus pneumoniae, IP692, 20 h, 37° C., 20 hours, SDA with 5% horse blood; read-out: Antimicrobial activity (MIC)
Method: as §1, §2

[13] = test system: S. aureus M126; assay: MIC, agar plate dilution method; details: Staphylococcus aureus, 37° C., 20 hours, SDA with 5% horse blood, read-out: Antimicrobial activity (MIC)
Method: as §1, §2

[14] = test system: S. pneumoniae Type 1; assay: MIC, agar plate dilution method; details: Streptococcus pneumoniae, TYPE1; 37° C., 20 hours, SDA with 5% horse blood; read-out: Antimicrobial activity (MIC)
Method: as §1, §2

[15] = test system: B. catarrhalis W-0506; assay: MIC, agar plate dilution method; details: Moraxella catarrhalis, W0506; 37° C., 20 hours, SDA with 5% horse blood; read-out: Antimicrobial activity (MIC)
Method: as §1, §2

[16] = test system: S. aureus MS15009/pMS98; assay: MIC, agar plate dilution method; details: Staphylococcus aureus, MS15009/PMS98, 20 h, read-out: Antimicrobial activity (MIC), 37° C., 20 hours, SDA with 5% horse blood
Method: as §1, §2

[17] = test system: M. luteus ATCC9341; assay: MIC, agar plate dilution method; details: Micrococcus luteus, ATCC9341; 37° C., 20 hours, SDA with 5% horse blood; read-out: Antimicrobial activity (MIC)
Method: as §1, §2

[18] = test system: S. epidermidis ATCC14990; assay: MIC, agar plate dilution method; details: Staphylococcus epidermidis, ATCC14990; 37° C., 20 hours, SDA with 5% horse blood; read-out: Antimicrobial activity (MIC)
Method: as §1, §2

[19] = test system: E. coli NIHJ JC-2; assay: MIC, agar plate dilution method; details: Escherichia coli, NIHJJC2, 20 h, 37° C., SDA with 5% horse blood, read-out: Antimicrobial activity (MIC)
Method: as §1, §2

[20] = test system: H. influenzae Type b; assay: MIC, agar plate dilution method; details: Haemophilus influenzae, 20 h, read-out: Antimicrobial activity (MIC), 37° C., 20 hours, SDA with 5% horse blood
Method: as §1, §2

Which “antimicrobial activities compared with compound (1)” value [1] does the source give for `CCOC(C)O[C@H]1/C=C/C=C/C[C@@H](C)OC(=O)C[C@@H](OC(=O)CC)[C@H](OC)[C@@H](O[C@@H]2O[C@H](C)[C@@H](O[C@H]3C[C@@](C)(OC)[C@@H](OC(=O)CC)[C@H](C)O3)[C@H](N(C)C)[C@H]2O)[C@@H](CC=O)C[C@H]1C` (single isomer, unassigned) [(16H)] here?
The value was “inferior to those of the compound (1)”.

Which “antimicrobial activities compared with compound (1)” value [1] does the source give for `CCOC(C)O[C@H]1/C=C/C=C/C[C@@H](C)OC(=O)C[C@@H](OC(=O)CC)[C@H](OC)[C@@H](O[C@@H]2O[C@H](C)[C@@H](O[C@H]3C[C@@](C)(OC)[C@@H](OC(=O)CC)[C@H](C)O3)[C@H](N(C)C)[C@H]2O)[C@@H](CC=O)C[C@H]1C` (single isomer, unassigned) [(16L)] here?
Its value is “inferior to those of the compound (1)”.

For `CCC(=O)O[C@@H]1CC(=O)O[C@H](C)C/C=C/C=C/[C@H](O)[C@H](C)C[C@H](CC=O)[C@H](O[C@@H]2O[C@H](C)[C@@H](O[C@H]3C[C@@](C)(OC)[C@@H](O)[C@H](C)O3)[C@H](N(C)C)[C@H]2O)[C@H]1OC` [(3), 3"-O-methylmidecamycin M1], which “antimicrobial activities (in words)” value [2] is on record?
The value was “strong antimicrobial activities”.

And the MIC [3]?
The MIC was 0.39 µg/mL (≈ 0.505 µM).

What about the MIC [4] of the same compound?
The MIC was over 100 µg/mL.

What about the MIC [5] of the same compound?
The MIC was over 100 µg/mL.

And the MIC [6]?
Its MIC is 0.78 µg/mL (≈ 1.01 µM).

And the MIC [7]?
The MIC was 3.13 µg/mL (≈ 4.05 µM).

And the MIC [8]?
The MIC was 0.2 µg/mL (≈ 0.259 µM).

And the MIC [9]?
The MIC was 0.78 µg/mL (≈ 1.01 µM).

And the MIC [10]?
Its MIC is 1.56 µg/mL (≈ 2.02 µM).

What about the MIC [11] of the same compound?
Its MIC is over 100 µg/mL.

What about the MIC [12] of the same compound?
Its MIC is 0.1 µg/mL (≈ 0.13 µM).

What about the MIC [13] of the same compound?
Its MIC is over 100 µg/mL.

What about the MIC [14] of the same compound?
The MIC was 0.1 µg/mL (≈ 0.13 µM).

What about the MIC [15] of the same compound?
The MIC was 3.13 µg/mL (≈ 4.05 µM).

And the MIC [16]?
The MIC was 0.78 µg/mL (≈ 1.01 µM).

And the MIC [17]?
Its MIC is 0.1 µg/mL (≈ 0.13 µM).

What about the MIC [18] of the same compound?
The MIC was 1.56 µg/mL (≈ 2.02 µM).

What about the MIC [19] of the same compound?
Its MIC is over 100 µg/mL.

What about the MIC [20] of the same compound?
The MIC was 50 µg/mL (≈ 64.8 µM).

And the “improvement of MIC values over corresponding compounds with free 3"-hydroxyl (midecamycin M1, leucomycin V)” value ([1]; most of the test strains)?
Its value is “improved two to three times”.

And the “antimicrobial activities in comparison with midecamycin M1” value ([1]; presumed in vivo metabolite of compound (5))?
Its value is “superior antimicrobial activities”.

With `CCC(=O)O[C@H]1[C@H](C)O[C@@H](O[C@H]2[C@H](N(C)C)[C@@H](O)[C@H](O[C@H]3[C@@H](CC=O)C[C@@H](C)[C@@H](OC(C)=O)/C=C/C=C/C[C@@H](C)OC(=O)C[C@@H](O)[C@@H]3OC)O[C@@H]2C)C[C@@]1(C)OC` [(6), 9-O-acetyl-3"-O-methylleucomycin A7] as the compound, how does the “antimicrobial activities compared with starting materials (1), (2) and (33)” value ([1]; 9-O-acylated vs free 9-hydroxyl) read?
The value was “strong antimicrobial activities by themselves though slightly lower than those of their starting materials”.
